The source of these data is US6160166A, “Phosphonated agents and their antiangiogenic and antitumorigenic use” (priority 1999, dated 2000).

For series [1] the following is noted: cited from earlier work.
Series [2] deals with chick chorioallantoic membrane (CAM). The experiment in a line: Chick egg chorioallantoic membrane (CAM) assay, 6-day, growing vessels: inhibition of angiogenesis. Particulars: for antiangiogenic activity relative to suramin: CAM assay / inhibition of angiogenesis, versus suramin; for inhibition of angiogenesis in the 6-day CAM, in words: rapidly growing vessels; for inhibition in vivo at 70 nmol: Gallus gallus, Tables 1 and 2, dose not given, Em = number of embryos, read-out: % Ih (Inhibition). The format is in vivo. An excerpt:
The purpose of this experiment was to test the ability of the phosphonic acid agents described above to inhibit angiogenesis. […]
(§1) Comparison of the inhibition of angiogenesis by 70 nmol of
(§2) suramin or a equimolar amount of a phosphonic acid agents in the
(§3) 6-day and 11-day chick egg chorioallantoic (CAM) assay.

The test system of the next series is MMP-2. The experiment in a line: MMP-2 activity by zymography, human microvascular endothelial cells. The format is cell-based. The settings on record: for inhibition of MMP-2 activity: human microvascular endothelial cells, zymography; for inhibition of bFGF-induced increase in MMP-2 activity: with bFGF. The source says:
Matrix metalloproteinases are an important group of zinc enzymes responsible for the degradation of the extracellular matrix components, such as collagen and proteoglycans. Currently, 16 family members have been identified. MMP family member differ from each other structurally by the presence or absence of domains that contribute to activities such as substrate specificity, inhibitor binding, matrix binding and cell surface localization (Powell and Matrisian, 1996). To determine if the phosphonic acid agents were effective inhibitors of the MMP's of endothelial cells, cells were incubated in the presence of the different agents for 48 hours. Tissue samples were taken and subjected to zymography. Tissue samples were placed in glass homogenizers in a three fold weight/volume of lysis buffer consisting of 50 mM Tris-HCL, pH=7.4, with 200 mM sodium chloride and 0.1% Triton X-100. The samples were homogenized and centrifuged at 1500 g for 20 min. The supernatant was immediately analyzed by zymography. Protein content of each sample was determined by a modified Lowry method.
MMP enzyme activity was detected using polyacrylamide gel eltrophoresis zymography. SDS-polyacrylamide gel electrophoresis (PAGE) was performed using 8% acrylamide gels containing 0.1% gelatin. The volume of test samples loaded was 15 μl. Electrophoresis was run at 4° C. at a constant voltage (100 volts). After electrophoresis, gels were incubated in Triton X-100 (2.5%) for 30 minutes to eliminate SDS, prior to being incubated overnight in 50 mM Tris HCL, pH7.5, containing 10 mM CaCl2 at 37° C. The gels were stained in 0.25% (W/v) Coomassie Brilliant Blue and destained in methanol:acetic acid:water (50:40:10). The clear zones in these gels indicates the presence of proteins with gelatinolytic activity. This method allows for identification of pro-metalloproteinases.Migration position of proteins and with standard molecular weight and supernatant from HT 1080 cells that express MMP-2 and MMP-9 were used as controls.

Series [3] deals with human dermal microvascular and porcine pulmonary artery endothelial cells. The experiment in a line: bFGF-stimulated and non-stimulated endothelial cell growth (total protein, total DNA). It counts as cell-based. The settings on record: 25 μM. An excerpt: Suramin is a highly charged molecule with six sulfonate groups that are ionized at physiologic pH.
In series [4] the test system is chick chorioallantoic membrane (CAM). The experiment in a line: Chick egg chorioallantoic membrane (CAM) assay, 11-day, established vessels. Particulars: for 11-day CAM % Inhibition: 70 nmol or equimolar amount; for inhibitory activity in the 11-day CAM, in words: established vessels. It counts as in vivo. On the procedure:
According to Ausprunk et al. (1974), capillary angiogenesis in the CAM is completed by day 11. Measurements of intercapillary distances are also consistent with the cessation of capillary growth after day 10. […] The implants were prepared as previously described by Gagliardi et al. (1992), implanted on day 11 and read on day 13.
as §1, §2, §3

In series [5] the test system is human dermal Microvascular endothelial cells. The series can be described thus: Inhibition of bFGF-stimulated growth of human microvascular endothelial cells. It counts as cell-based. Particulars: for IC50: Homo sapiens, Endothelial cell, bFGF-stimulated, estimated from dose response curve. Here is the method:
Inhibition of cell growth was evaluated by measuring total protein and total DNA and the IC50 was estimated for each dose response curve.

For series [6], the system named is different cancer cell lines. The series can be described thus: MTT cell proliferation, different cancer cell lines. The format is cell-based, human. Particulars: cancer cell lines in vitro.

Usually IC50 stands for the concentration that inhibits the measured activity by half.

As for `CN1CCCC1=O` [N-methyl-2-pyrrolidone], in series [1] (Wells et al.), the “toxicity in Ames type assays and chronic exposure studies” value is listed as “have not revealed any significant toxicity”. Besides, in series [1] (animal and human experiments), the “irritation or sensitization potential” value is recorded as “very little irritation or sensitization potential”.

Turning to `O=C(Nc1cccc(C(=O)Nc2cccc(C(=O)Nc3cccc(P(=O)(O)O)c3)c2)c1)Nc1cccc(C(=O)Nc2cccc(C(=O)Nc3cccc(P(=O)(O)O)c3)c2)c1` [NF 050], the “antiangiogenic activity relative to suramin” value in series [2] was in the range of 2 to 4 times. Moreover, in the series on MMP-2, the “inhibition of MMP-2 activity” value was “potent inhibitors of MMP-2 activity” and the “inhibition of bFGF-induced increase in MMP-2 activity” value (from here on “inhibition of bFGF-induced increase”) is “inhibited the increase in MMP-2 activity induced by bFGF”. Moreover, in series [3], the “effect on bFGF stimulation of endothelial cell growth” value (“effect on bFGF stimulation” below) is “inhibited the stimulation of endothelial cell growth by bFGF” and the “effect on total protein content versus unstimulated control” value is “significantly reduced total protein content far below the unstimulated control endothelial cells”.

In the case of `O=C(Nc1cccc(C(=O)Nc2ccc(P(=O)(O)O)cc2)c1)Nc1cccc(C(=O)Nc2ccc(P(=O)(O)O)cc2)c1` [NF 067], in series [2], the “inhibition of angiogenesis in the 6-day CAM, in words” value (“inhibition of angiogenesis … in words” below) is reported as “very potent inhibitors of angiogenesis”; the “antiangiogenic activity relative to suramin” value is listed as 2 to 4 times; the inhibition in vivo at 70 nmol amounted to 62%. The “ID50, dose that produces 50% inhibition of angiogenesis” value in series [2] (CAM assay) was 32 nmol. Moreover, in series [4], the “11-day CAM % Inhibition” value stood at 0% and the “inhibitory activity in the 11-day CAM, in words” value (“inhibitory activity” for short) is “no significant inhibitory activity”. Besides, the IC50 in series [5] is 19.4 µM. Besides, the “potency relative to suramin, inhibition of endothelial cell growth” value in series [5] (versus suramin, in vitro) amounted to 20 times. Besides, the “antiproliferative activity, in words” value in series [6] is reported as “very low antiproliferative activity”. In addition, in series [3], the “effect on bFGF stimulation” value is “inhibited the stimulation of endothelial cell growth by bFGF” and the “effect on total protein content versus unstimulated control” value is on record as “significantly reduced total protein content far below the unstimulated control endothelial cells”.

Regarding `O=C(Nc1cccc(C(=O)Nc2cccc(P(=O)(O)O)c2)c1)Nc1cccc(C(=O)Nc2cccc(P(=O)(O)O)c2)c1` [NF 068], the “antiangiogenic activity relative to suramin or between groups, in words” value in series [2] (CAM assay) is given as “does not show any antiangiogenic activity”. Moreover, in series [2], the inhibition in vivo at 70 nmol was found to be 0%.

For `O=C(Nc1ccc(C(=O)Nc2cccc(P(=O)(O)O)c2)cc1)Nc1ccc(C(=O)Nc2cccc(P(=O)(O)O)c2)cc1` [NF 069], in series [2], the “inhibition of angiogenesis … in words” value is “very potent inhibitors of angiogenesis”; the “antiangiogenic activity relative to suramin” value was 4-8 times; the inhibition in vivo at 70 nmol came to 66%. In series [2] (CAM assay), the “ID50, dose that produces 50% inhibition of angiogenesis” value is 9 nmol. For the same compound, in series [4], the “11-day CAM % Inhibition” value is given as 0% and the “inhibitory activity” value is “no significant inhibitory activity”. Besides, the concentration for half-maximal inhibition (IC50) in series [5] is 75 µM. Moreover, in series [3], the “effect on bFGF stimulation” value was “inhibited the stimulation of endothelial cell growth by bFGF” and the “effect on total protein content versus unstimulated control” value is reported as “significantly reduced total protein content far below the unstimulated control endothelial cells”.

Turning to `O=C(Nc1cccc(P(=O)(O)O)c1)Nc1cccc(P(=O)(O)O)c1` [NF 158], in series [2], the inhibition in vivo at 70 nmol stood at 0%.

For `O=C(Nc1ccc(P(=O)(O)O)cc1)Nc1ccc(P(=O)(O)O)cc1` [NF 161], in series [2], the “antiangiogenic activity relative to suramin” value fell in the range of 2 to 4 times and the inhibition in vivo at 70 nmol was 53%. In series [3], the “effect on bFGF stimulation” value is “inhibited the stimulation of endothelial cell growth by bFGF” and the “effect on total protein content versus unstimulated control” value is on record as “significantly reduced total protein content far below the unstimulated control endothelial cells”.

Consider `O=C(Nc1ccc(P(=O)(O)O)cc1)c1ccc(NC(=S)Nc2ccc(C(=O)Nc3ccc(P(=O)(O)O)cc3)cc2)cc1` [NF 162], for which, in the series with MMP-2, the “inhibition of MMP-2 activity” value is “potent inhibitors of MMP-2 activity” and the “inhibition of bFGF-induced increase” value was “inhibited the increase in MMP-2 activity induced by bFGF”.

Turning to `O=C(Nc1ccc(P(=O)(O)O)cc1)c1cc(NC(=O)c2cccc([N+](=O)[O-])c2)cc(C(=O)Nc2ccc(P(=O)(O)O)cc2)c1` [NF 167], the “antiangiogenic activity relative to suramin” value in series [2] was 2 to 4 times. Also, in series [3], the “effect on bFGF stimulation” value is reported as “inhibited the stimulation of endothelial cell growth by bFGF” and the “effect on total protein content versus unstimulated control” value was “significantly reduced total protein content far below the unstimulated control endothelial cells”.

`O=C(Nc1ccc(OC(=O)P(=O)(O)O)cc1)Nc1ccc(OC(=O)P(=O)(O)O)cc1` [NF 392]: the inhibition in vivo at 70 nmol in series [2] was 6%.

Regarding `O=C(Nc1cccc(OC(=O)P(=O)(O)O)c1)Nc1cccc(OC(=O)P(=O)(O)O)c1` [NF 426], the inhibition in vivo at 70 nmol in series [2] was 39%.

In the case of `O=C(Nc1ccc(NC(=O)P(=O)(O)O)cc1)Nc1ccc(NC(=O)P(=O)(O)O)cc1` [NF 428], the “antiangiogenic activity relative to suramin” value in series [2] lay within 2 to 4 times. Further, in series [3], the “effect on bFGF stimulation” value was “inhibited the stimulation of endothelial cell growth by bFGF” and the “effect on total protein content versus unstimulated control” value is given as “significantly reduced total protein content far below the unstimulated control endothelial cells”.

Regarding `O=C(Nc1ccccc1OC(=O)P(=O)(O)O)Nc1ccccc1OC(=O)P(=O)(O)O` [NF 473], the inhibition in vivo at 70 nmol in series [2] stood at 21%.

As to `Cc1cc(NC(=O)Nc2ccc(OC(=O)P(=O)(O)O)c(C)c2)ccc1OC(=O)P(=O)(O)O` [NF 474], the inhibition in vivo at 70 nmol in series [2] stood at 12%.

For the compound `O=C(Nc1ccc(C(=O)Nc2ccc(P(=O)(O)O)cc2)cc1)Nc1ccc(C(=O)Nc2ccc(P(=O)(O)O)cc2)cc1` [NF 681], in series [2], the “inhibition of angiogenesis … in words” value was “very potent inhibitors of angiogenesis”; the “antiangiogenic activity relative to suramin” value is 4-8 times; the inhibition in vivo at 70 nmol was found to be 100%. Also, the “ID50, dose that produces 50% inhibition of angiogenesis” value in series [2] (CAM assay) came out at 2 nmol. For the same compound, in series [4], the “11-day CAM % Inhibition” value was determined as 0% and the “inhibitory activity” value is reported as “no significant inhibitory activity”. Further, in series [5], the half-inhibitory concentration (IC50) was 1.5 µM. In addition, in the series on MMP-2, the “inhibition of MMP-2 activity” value is “potent inhibitors of MMP-2 activity” and the “inhibition of bFGF-induced increase” value was “inhibited the increase in MMP-2 activity induced by bFGF”. Also, in series [3], the “effect on bFGF stimulation” value is listed as “inhibited the stimulation of endothelial cell growth by bFGF” and the “effect on total protein content versus unstimulated control” value is listed as “significantly reduced total protein content far below the unstimulated control endothelial cells”.
